US8906825B2, “Herbicidal compositions comprising 4-amino-3-chloro-5-fluoro-6-(4-chloro-2-fluoro-3-methoxyphenyl) pyridine-2-carboxylic acid or a derivative thereof and triazolopyrimidine sulfonamides” (Dow AgroSciences LLC, priority 2012, dated 2014)

Columns and labels:
Format in all cases: in vivo
[1] = tested on: BRAPP (Brachiaria platyphylla (Griseb.) Nash, broadleaf signalgrass); test: Postemergence foliar-applied herbicidal mixtures, direct seeded rice, greenhouse (Example I)
Description: (§1) Seeds or nutlets of the desired test plant species were planted in a soil matrix prepared by mixing a loam or sandy loam soil (e.g., 28.6 percent silt, 18.8 percent clay, and 52.6 percent sand, with a pH of about 5.8 and an organic matter content of about 1.8 percent) and calcareous grit in an 80 to 20 ratio. The soil matrix was contained in plastic pots with a volume of 1 quart and a surface area of 83.6 square centimeters (cm^2). When required to ensure good germination and healthy plants, a fungicide treatment and/or other chemical or physical treatment was applied. The plants were grown for 8-22 days in a greenhouse with an approximate 14 h photoperiod which was maintained at about 29° C. during the day and about 26° C. during the night. Nutrients (Peters Excel® 15-5-15 5-Ca 2-Mg and iron chelate) were applied in the irrigation solution as needed and water was added on a regular basis. Supplemental lighting was provided with overhead metal halide 1000-Watt lamps as necessary. The plants were employed for testing when they reached the first through fourth true leaf stage.
(§2) Treatments consisted of the acid or esters of 4-amino-3-chloro-5-fluoro-6-(4-chloro-2-fluoro-3-methoxy-phenyl)pyridine-2-carboxylic acid (Compound A), each formulated as an SC (suspension concentrate), and various herbicidal components alone and in combination. Forms of compound A were applied on an acid equivalent basis.
(§3) Other herbicidal components were applied on an active ingredient basis and included acetolactate synthase (ALS)-inhibiting herbicides (sulfonamide chemical class) penoxsulam formulated as Grasp® SC, diclosulam formulated as Strongarm®, and cloransulam-methyl formulated as FirstRate®, flumetsulam formulated as Flumetsulam WG, and metosulam formulated as Eclipse®.
(§4) Treatment requirements were calculated based upon the rates being tested, the concentration of active ingredient or acid equivalent in the formulation, and a 12 mL application volume at a rate of 187 L/ha.
(§5) For treatments comprised of formulated compounds, measured amounts of compounds were placed individually in 25 mL glass vials and diluted in a volume of 1.25% (v/v) Agri-Dex® crop oil concentrated to obtain 12× stock solutions. […] Application solutions were prepared by adding an appropriate amount of each stock solution (e.g., 1 mL) and diluted to the appropriate final concentrations with the addition of 10 mL of an aqueous mixture of 1.25% (v/v) crop oil concentrate so that the final spray solutions contained 1.25+/−0.05% (v/v) crop oil concentrate.
(§6) All stock solutions and applications solutions were visually inspected for compound compatibility prior to application. Spray solutions were applied to the plant material with an overhead Mandel track sprayer equipped with an 8002E nozzle calibrated to deliver 187 L/ha over an application area of 0.503 m^2 at a spray height of 18 to 20 inches (46 to 50 cm) above average plant canopy height. Control plants were sprayed in the same manner with the solvent blank.
(§7) The treated plants and control plants were placed in a greenhouse as described above and watered by sub-irrigation to prevent wash-off of the test compounds. After approximately 3 weeks, the condition of the test plants as compared with that of the untreated plants was determined visually and scored on a scale of 0 to 100 percent where 0 corresponds to no injury or growth inhibition and 100 corresponds to complete kill.
(§8) Colby's equation was used to determine the herbicidal effects expected from the mixtures (Colby, S. R. 1967. Calculation of the synergistic and antagonistic response of herbicide combinations. Weeds 15:20-22.).
(§9) The following equation was used to calculate the expected activity of mixtures containing two active ingredients, A and B: Expected=A+B−(A×B/100)

[2] = tested on: IPOHE (Ipomoea hederacea Jacq., ivyleaf morningglory); test: as above
Description: as §1, §2, §3, §4, §5, §6, §7, §8, §9

[3] = tested on: ISCRU (Ischaemum rugosum Salisb., saramollagrass); test: as above
Description: as §1, §2, §3, §4, §5, §6, §7, §8, §9

[4] = tested on: LEFCH (Leptochloa chinensis (L.) Nees, Chinese sprangletop); test: as above
Description: as §1, §2, §3, §4, §5, §6, §7, §8, §9

[5] = tested on: LEFPA (Leptochloa panicoides(Presl.) Hitchc., Amazon sprangletop); test: Postemergence field trials in direct-seeded rice, United States (Example IV); conditions: foliar
Method: (§10) Multiple post-emergence field trials were conducted under field conditions in Tolima, Colombia; Thessaloniki, Greece; Ottobiano and Copiano, Italy; Greenville, Miss. and Eagle Lake, Tex., USA; and water-injected treatments were tested at Ryugasaki, Japan. Trial sites were located in commercially grown fields of direct-seeded rice (Oryza sativa) using standard herbicide small plot research methodology, except in Japan where transplanted rice was utilized for the field trial. Post-emergence trial plot size varied from 2 to 3 meter (m)×5 to 8 m (width×length) with 4 replicates per treatment. Water-injected trial plot size was 2×2 m with 3 replicates per treatment. The rice crop was grown using normal cultural practices for fertilization, seeding, watering, flooding and maintenance to ensure good growth of the crop and the weeds.
(§11) All treatments in the post-emergence field trials were applied using a backpack compressed air/gas sprayer with flat fan nozzles (80° or 110°) calibrated to apply 187 to 300 L/ha spray volume at approximately 200-400 kPa nozzle pressure. In Japan, treatments were water-injected applied where the specified amount of commercial product was mixed in 100 mls of water per replicate and applied directly into 3 cm deep water containing the crop and weeds. Treatments consisted of the benzyl ester of 4-amino-3-chloro-5-fluoro-6-(4-chloro-2-fluoro-3-methoxy-phenyl)pyridine-2-carboxylic acid (Compound A), formulated as an SC (suspension concentrate), and various herbicidal components alone and in combination.
(§12) Commercially available products of penoxsulam (Viper 20OD® (Europe), Grasp 240SC® (USA), and Wideattack 37.5SC® (Japan)) were mixed in water at appropriate formulated product rates to achieve the desired rates based on a unit area of application (hectare) to achieve the desired rates as shown. Treatments were rated at 15 to 56 days after application (DAA) as compared to the untreated control plants. Visual weed control was scored on a scale of 0 to 100 percent where 0 corresponds to no injury and 100 corresponds to complete kill.
All treatment results, both for the single product and mixtures, are an average of 3 to 4 replicates. The trial sites had naturally occurring populations of weeds. The weed spectrum included, but was not limited to, broadleaf signalgrass (Brachiaria platyphylla (Griseb.) Nash or Urochloa platyphylla (Nash) R.D. Webster, BRAPP), smallflower umbrellaplant (Cyperus difformis L., CYPDI), yellow nutsedge (Cyperus esculentus L., CYPES), multiple Echinochloa species in the same field (ECHSS) in Italy (mixed ECHSS biotypes), Amazon sprangletop (Leptochloa panicoides (J. Presl) A.S. Hitchc., LEFPA), and Japanese bulrush (Schoenoplectus juncoides (Roxb.) Palla, SCPJU).

[6] = tested on: SCPJU (Schoenoplectus juncoides Roxb., Japanese bulrush); test: Water-injected field trial in transplanted rice, Japan (Example IV)
Method: as §10, §11
as §12, with “kill. […]” for “kill.”

[7] = Compound A Benzyl Ester 8 gae/ha
[8] = Compound A Benzyl Ester 16 gae/ha
[9] = Compound A Benzyl Ester 17.5 gae/ha
[10] = Compound A Benzyl Ester 32 gae/ha
[11] = Compound A Benzyl Ester 4.38 gae/ha
[12] = Compound A Benzyl Ester 8.75 gae/ha
[13] = Penoxsulam 4.38 gai/ha, Table 3
[14] = Penoxsulam 8.75 gai/ha, Table 2
[15] = Penoxsulam 8.75 gai/ha, Table 3
[16] = Penoxsulam 17.5 gai/ha, Table 3

How did the “Visual Weed Control (%) - 22 DAA BRAPP Obs” value [1, 7] turn out when `COc1c(Cl)ccc(-c2nc(C(=O)OCc3ccccc3)c(Cl)c(N)c2F)c1F` [Compound A Benzyl Ester, benzyl ester of 4-amino-3-chloro-5-fluoro-6-(4-chloro-2-fluoro-3-methoxy-phenyl)pyridine-2-carboxylic acid] was run?
The value was 60%.

And the “Visual Weed Control (%) - 22 DAA BRAPP Obs” value [1, 8]?
Its value is 60%.

What about the “Visual Weed Control (%) - 21 DAA BRAPP Obs” value [1, 9] of the same compound?
The value was 80%.

What about the “Visual Weed Control (%) - 22 DAA BRAPP Obs” value [1, 10] of the same compound?
Its value is 90%.

And the “Visual Weed Control (%) - 27 DAA IPOHE Obs” value [2, 11]?
The value was 10%.

And the “Visual Weed Control (%) - 27 DAA IPOHE Obs” value [2, 12]?
The value was 10%.

What about the “Visual Weed Control (%) - 27 DAA IPOHE Obs” value [2, 9] of the same compound?
The value was 10%.

And the “Visual Weed Control (%) - 21 DAA ISCRU Obs” value [3, 7]?
The value was 20%.

And the “Visual Weed Control (%) - 21 DAA ISCRU Obs” value [3, 8]?
The value was 0%.

What about the “Visual Weed Control (%) - 20 DAA LEFCH Obs” value [4, 11] of the same compound?
Its value is 10%.

And the “Visual Weed Control (%) - 22 DAA LEFCH Obs” value [4, 7]?
Its value is 10%.

What about the “Visual Weed Control (%) - 20 DAA LEFCH Obs” value [4, 12] of the same compound?
Its value is 20%.

And the “Visual Weed Control (%) - 22 DAA LEFCH Obs” value [4, 8]?
Its value is 25%.

What about the “Visual Weed Control (%) - 20 DAA LEFCH Obs” value [4, 9] of the same compound?
Its value is 60%.

And the “Visual Weed Control (%) - 22 DAA LEFCH Obs” value [4, 10]?
Its value is 55%.

And the “Visual Weed Control (%) - 15-19 DAA LEFPA Obs” value ([5]; Compound A Benzyl Ester 24 gae/ha)?
Its value is 53%.

And the “Visual Weed Control (%) - 28 DAA SCPJU Obs” value ([6]; Compound A Benzyl Ester 150 gae/ha)?
The value was 22%.

And the “Visual Weed Control (%) - 28 DAA SCPJU Obs” value ([6]; Compound A Benzyl Ester 200 gae/ha)?
Its value is 25%.

Which “Visual Weed Control (%) - 21 DAA BRAPP Obs” value ([1]; Penoxsulam 4.38 gai/ha, Table 2) does the source give for `COc1cnc(OC)n2nc(NS(=O)(=O)c3c(OCC(F)F)cccc3C(F)(F)F)nc12` [Penoxsulam, 2-(2,2-difluoroethoxy)-N-(5,8-dimethoxy[1,2,4]triazolo[1,5-c]pyrimidin-2-yl)-6-(trifluoromethyl)benzenesulfonamide, reference compound] here?
The value was 0%.

And the “Visual Weed Control (%) - 21 DAA BRAPP Obs” value [1, 13]?
The value was 0%.

And the “Visual Weed Control (%) - 21 DAA BRAPP Obs” value [1, 14]?
Its value is 20%.

And the “Visual Weed Control (%) - 21 DAA BRAPP Obs” value [1, 15]?
The value was 20%.

And the “Visual Weed Control (%) - 21 DAA BRAPP Obs” value [1, 16]?
Its value is 40%.

And the “Visual Weed Control (%) - 27 DAA IPOHE Obs” value [2, 13]?
The value was 10%.

And the “Visual Weed Control (%) - 27 DAA IPOHE Obs” value ([2]; Penoxsulam 8.75 gai/ha, Table 1)?
Its value is 15%.

What about the “Visual Weed Control (%) - 27 DAA IPOHE Obs” value [2, 14] of the same compound?
The value was 15%.

And the “Visual Weed Control (%) - 27 DAA IPOHE Obs” value [2, 15]?
Its value is 15%.

And the “Visual Weed Control (%) - 27 DAA IPOHE Obs” value ([2]; Penoxsulam 17.5 gai/ha, Table 1)?
Its value is 20%.

What about the “Visual Weed Control (%) - 27 DAA IPOHE Obs” value ([2]; Penoxsulam 17.5 gai/ha, Table 2) of the same compound?
The value was 20%.

What about the “Visual Weed Control (%) - 27 DAA IPOHE Obs” value [2, 16] of the same compound?
The value was 20%.

And the “Visual Weed Control (%) - 21 DAA ISCRU Obs” value ([3]; Penoxsulam 10 gai/ha)?
Its value is 0%.

What about the “Visual Weed Control (%) - 21 DAA ISCRU Obs” value ([3]; Penoxsulam 20 gai/ha) of the same compound?
The value was 0%.

And the “Visual Weed Control (%) - 19 DAA LEFCH Obs” value ([4]; Penoxsulam 40 gai/ha)?
The value was 0%.

What about the “Visual Weed Control (%) - 15-19 DAA LEFPA Obs” value ([5]; Penoxsulam 40 gai/ha) of the same compound?
Its value is 16%.

And the “Visual Weed Control (%) - 28 DAA SCPJU Obs” value ([6]; Penoxsulam 50 gai/ha)?
Its value is 20%.
